Measured values: patent publication US20230346820A1, “METHODS AND COMPOSITIONS FOR THE TREATMENT OF SARS-COV-2” (priority 2020, published 2023)
Where a name gives a salt, the structure may show the parent alone. Read-outs that look alike come from different tables or passages of the source. Residues, ends and D or L forms follow the SMILES beside them. *: point of attachment. Cbz = O=C(OCc1ccccc1)*; CHN2 = [N-]=[N+]=C*

Experiments:
SARS-CoV-2 [1] = tested on: SARS-CoV-2
in vitro = conditions: human
HeLa-ACE2 cells = experiment: cells; format: cell-based, human; conditions: Homo sapiens
SARS-CoV-2 [2] = experiment: microbe, parasite or virus in culture
[3] = CC50 [μM] (Geomeans, n ≥ 2 except where indicated: *n = 1)
[4] = HeLa-ACE2, read-out: HeLa-ACE-2 EC50 [μM] (Geomeans, n ≥ 2)
[5] = Severe acute respiratory syndrome coronavirus 2, HeLa-ACE2, 24 h, read-out: CoV-2 EC50 [μM] (Geomeans, n ≥ 2)
[6] = Severe acute respiratory syndrome coronavirus 2, HeLa-ACE2, read-out: SARS-CoV-2 EC50

CCCCCCOC(=O)NC(=N)c1ccc(NCc2nc3cc(C(=O)N(CCC(=O)OCC)c4ccccn4)ccc3n2C)cc1 [Dabigatranetexilate mesilate]
HeLa-ACE2 CC50/CoV-2 EC50 (SARS-CoV-2 [1]): >6.50 | CC50 (in vitro; [3]): > 26.5 µM

O=c1c2ccccc2[se]n1-c1ccccc1 [Ebselen]
EC50 (HeLa-ACE2 cells; [4]): 6.02 µM | HeLa-ACE2 CC50/CoV-2 EC50 (SARS-CoV-2 [1]): 3.13 | CC50 (in vitro; [3]): > 26.6 µM | EC50 (SARS-CoV-2 [2]; [5]): > 8.5 µM

CN(C)CC1=C[CH]([Fe][CH]2C=CC=C2)C=C1CNc1ccnc2cc(Cl)ccc12 (centres unmarked) [Ferroquine]
HeLa-ACE2 CC50/CoV-2 EC50 (SARS-CoV-2 [1]): 10.29 | CC50 (in vitro; [3]): 13.4 µM

c1cn2cc(-c3ccc4c(c3)nc3n4CCN4CCCCC4C3)ccc2n1 (centres unmarked) [Integrity ID 725781]
EC50 (HeLa-ACE2 cells; [4]): > 9.59 µM | HeLa-ACE2 CC50/CoV-2 EC50 (SARS-CoV-2 [1]): 4.41 | CC50 (in vitro; [3]): > 39.8 µM | EC50 (SARS-CoV-2 [2]; [5]): > 9.04 µM

COC(CNCC(C)C)COc1c(C)csc1C(=O)CCc1ccccc1 (centres unmarked) [LG-6-101]
HeLa-ACE2 CC50/CoV-2 EC50 (SARS-CoV-2 [1]): 10.3 | CC50 (in vitro; [3]): > 35.6 µM | EC50 (SARS-CoV-2 [2]; [5]): 3.46 µM

COCC12CN(S(=O)(=O)c3ccc4cc(Cl)ccc4c3)CC(=O)N1CC1(CCN(c3ccncc3)CC1)O2 (centres unmarked) [M-55532]
EC50 (HeLa-ACE2 cells; [4]): > 6.45 µM | HeLa-ACE2 CC50/CoV-2 EC50 (SARS-CoV-2 [1]): 6.81 | CC50 (in vitro; [3]): 18.9 µM | EC50 (SARS-CoV-2 [2]; [5]): 2.77 µM

O=C(CCCN1CCN(c2ccc(F)cc2)CC1)NC1c2ccccc2CSc2ccccc21 (centres unmarked) [MONATEPIL]
HeLa-ACE2 CC50/CoV-2 EC50 (SARS-CoV-2 [1]): >5.01 | CC50 (in vitro; [3]): > 39 µM | EC50 (SARS-CoV-2 [2]; [5]): > 7.79 µM

C=CC(=O)Nc1cc2c(Nc3ccc(F)c(Cl)c3)ncnc2cc1C#CC(C)(C)N1CCN(C)CC1 [MP-412]
EC50 (HeLa-ACE2 cells; [4]): 1.25 µM | HeLa-ACE2 CC50/CoV-2 EC50 (SARS-CoV-2 [1]): 4.18 | CC50 (in vitro; [3]): 3.18 µM | EC50 (SARS-CoV-2 [2]; [5]): 0.761 µM

c1ccc2c(c1)Sc1ccccc1N2CC1CN2CCC1CC2 (centres unmarked) [Mequitazine]
EC50 (HeLa-ACE2 cells; [4]): > 9.59 µM | HeLa-ACE2 CC50/CoV-2 EC50 (SARS-CoV-2 [1]): 6.83 | CC50 (in vitro; [3]): 17.3 µM | EC50 (SARS-CoV-2 [2]; [5]): 2.53 µM

CCCCN1CC[C@H](c2ccc(N(C)C)cc2)[C@@H](COc2ccc(C(F)(F)F)cc2)C1 [NNC 090026]
HeLa-ACE2 CC50/CoV-2 EC50 (SARS-CoV-2 [1]): >5.59 | CC50 (in vitro; [3]): > 15.4 µM | CC50 (in vitro; Uninfected HeLa-ACE2 CC50 (μM)): > 15.4 µM | EC50 (SARS-CoV-2 [2]; [5]): 2.75 µM | EC50 (SARS-CoV-2 [2]; Severe acute respiratory syndrome coronavirus 2, HeLa-ACE2, read-out: SARS CoV-2 EC50 (μM)): 2.75 µM

Cc1ccc(C(=O)Nc2ccc(CN3CCN(C)CC3)c(C(F)(F)F)c2)cc1C#Cc1cnc2cccnn12 [Ponatinib]
EC50 (HeLa-ACE2 cells; [4]): 1.25 µM | EC50 (SARS-CoV-2 [2]; [5]): 1.61 µM

N#Cc1ccc2c(c1)[C@H]1CN(CCCCNC(=O)c3ccc(-c4ccccc4)cc3)C[C@@H]1CO2 [S-33084]
HeLa-ACE2 CC50/CoV-2 EC50 (SARS-CoV-2 [1]): >6.34 | CC50 (in vitro; [3]): > 24.8 µM | EC50 (SARS-CoV-2 [2]; [5]): 3.91 µM

CNC(=O)c1cc(Oc2ccc(NC(=O)Nc3ccc(Cl)c(C(F)(F)F)c3)cc2)ccn1 [Sorafenib]
HeLa-ACE2 CC50/CoV-2 EC50 (SARS-CoV-2 [1]): >1.52 | CC50 (in vitro; [3]): > 8.65 µM | EC50 (SARS-CoV-2 [2]; [5]): > 5.67 µM

COc1cc(C[C@H]2c3cc(OC)c(OC)cc3CCN2C)c(Oc2cc3c(cc2OC)-c2c(OC)c(OC)cc4c2[C@H](C3)N(C)CC4)cc1OC [Thalicarpine]
EC50 (HeLa-ACE2 cells; [4]): > 9.6 µM | HeLa-ACE2 CC50/CoV-2 EC50 (SARS-CoV-2 [1]): >45.67 | CC50 (in vitro; [3]): > 26.6 µM

CC(C)CC(NC(=O)OCc1ccccc1)C(=O)NC(C(=O)NCC(=O)C=[N+]=[N-])C(C)C (stereo not drawn) [Z LVG CHN2] (Cbz-Leu-Val-Gly-CHN2; configuration not given here)
HeLa-ACE2 CC50/CoV-2 EC50 (SARS-CoV-2 [1]): >554.29 | CC50 (in vitro; [3]): > 39.8 µM | EC50 (SARS-CoV-2 [2]; [5]): 0.072 µM

Cc1c(-c2ccc(O)cc2)n(Cc2ccc(OCCN3CCCCCC3)cc2)c2ccc(O)cc12 [bazedoxifene]
EC50 (SARS-CoV-2 [2]; [6]): 3.47 µM

OC(CNCC(O)C1CCc2cc(F)ccc2O1)C1CCc2cc(F)ccc2O1 (centres unmarked) [nebivolol hydrochloride]
HeLa-ACE2 CC50/CoV-2 EC50 (SARS-CoV-2 [1]): >3.75 | CC50 (in vitro; [3]): > 11.1 µM | EC50 (SARS-CoV-2 [2]; [5]): 2.96 µM

COc1ccc(C[C@H](N)C(=O)N[C@H]2[C@@H](O)[C@H](n3cnc4c(N(C)C)ncnc43)O[C@@H]2CO)cc1 [puromycin]
EC50 (HeLa-ACE2 cells; HeLa-ACE2, read-out: EC50 (total cell numbers per well, toxicity in context of infection)): 0.547 ± 0.027 µM | CC50 (in vitro; HeLa-ACE2 CC50): 2.45 ± 0.23 µM

O=C(c1ccc(OCCN2CCCCC2)cc1)c1c(-c2ccc(O)cc2)sc2cc(O)ccc12 [raloxifene]
EC50 (SARS-CoV-2 [2]; [6]): 4.13 µM
